Reference: article PMC10100877, “Identification of Small-Molecule Inhibitors of the Salmonella FraB Deglycase Using a Live-Cell Assay” (Microbiology Spectrum, 2023)
Where a name gives a salt, the structure may show the parent alone. Read-outs that look alike come from different tables or passages of the source.

Tests used:
[1] = test system: wild-type Salmonella (ASD200) live cells; assay: Live-cell growth assay, concentration-response (IC50/IC90) of the top 8 purchased compounds; format: cell-based, Salmonella enterica serovar Typhimurium; details: for IC50: read-out: IC50 with live cells, value (95% CI), concentration that inhibits growth to 50%; for IC90: read-out: IC90 with live cells, value (95% CI), concentration that inhibits growth to 90%
recombinant FraB = recombinant FraB (Salmonella enterica subsp. enterica serovar Typhimurium, UniProt Q8ZLD0); format: biochemical; details: for IC50: read-out: IC50 with recombinant FraB (mean ± SE); for Ki: read-out: Ki′ with FraB (mean ± SD)
recombinant FraB, sequence (Q8ZLD0 1-325): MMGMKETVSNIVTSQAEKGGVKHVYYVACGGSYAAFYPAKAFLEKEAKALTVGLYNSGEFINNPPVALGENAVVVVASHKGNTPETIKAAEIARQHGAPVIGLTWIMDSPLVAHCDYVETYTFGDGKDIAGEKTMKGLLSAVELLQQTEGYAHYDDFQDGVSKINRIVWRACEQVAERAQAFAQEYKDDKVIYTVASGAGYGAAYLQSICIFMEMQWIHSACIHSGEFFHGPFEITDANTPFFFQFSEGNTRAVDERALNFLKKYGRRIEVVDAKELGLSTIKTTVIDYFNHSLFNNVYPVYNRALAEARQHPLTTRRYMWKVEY

[2] = test system: fraB mutants of Salmonella; design: method as in PMID 27258673; details: F-Asn made with the small-scale synthesis route; cited from earlier work
[3] = test system: fraB mutants of Salmonella; assay: Growth inhibition (intoxication) of fraB mutants by F-Asn; format: cell-based; details: new gram-scale preparations of F-Asn
[4] = M9 minimal medium, 5 mM glucose, 1 mM F-Asn, 17-h time point, 95% CI in brackets

Compound	IC50 ([1]; 17 h) [µM]	IC90 ([1]; 17 h) [µM]	IC50 [1, 4] [µM]	IC90 [1, 4] [µM]	IC50 (recombinant FraB) [µM]	mode of inhibition of FraB (recombinant FraB)	Ki (recombinant FraB) [µM]	IC50 [2] [µM]	IC50 [3] [µM]
CCOc1ccc(N2C(=O)NC(=O)/C(=C/c3cc(Cl)c(O)c(OC)c3)C2=O)cc1 [611:D03]	100	240	–	–	–	–	–	–	–
COc1ccc2[nH]c(SC)nc2c1 [1582:D17]	–	–	143	318	> 1000	–	–	–	–
Nc1cc(C(=O)O)ccc1Nc1ccccc1 [1609:K19, 3-amino-4-(phenylamino)benzoic acid]	–	–	155	411	114 ± 3.8	116 ± 27; uncompetitive	116 ± 27	–	–
O=c1c(=NO)c(=O)c2ccccc12 [1669:M19, triketoindan-2-oxime]	–	–	109	297	133 ± 0.8	26 ± 4; uncompetitive	26 ± 4	–	–
O=C(O)/C=C/Sc1ccccc1 [1737:K20]	–	–	121	503	> 1000	–	–	–	–
C/C(=N\O)C(=O)c1ccc(Cl)cc1 [1789:D13]	–	–	183	348	> 1000	–	–	–	–
c1ccc([B-]2(c3ccccc3)[NH2+]CCO2)cc1 [3403:P13, 2,2-diphenyl-1,3,2-oxaazaborolidine internal salt]	–	–	89	184	35 ± 0.9	27 ± 6 uncompetitive	27 ± 6	–	–
NC(=O)C[C@H](NCC(=O)[C@@H](O)[C@H](O)[C@H](O)CO)C(=O)O [F-Asn, fructose-asparagine]	–	–	–	–	–	–	–	~20	~30
